This passage reports Ki results from ChEMBL document CHEMBL1132558, “A new single-photon emission computed tomography imaging agent for serotonin transporters: [123I]IDAM, 5-iodo-2-((2-((dimethylamino)methyl)phenyl)thio)benzyl alcohol” (J Med Chem, 1999).

Structures are written as SMILES. A value given as a limit tells only on which side of the number the result lay.

The species entered for test [1] is Rattus norvegicus. The test can be described thus: Concentration inhibiting norepinephrine uptake in rat brain synaptosomes. The format is functional.
For test [2], the species on record is Rattus norvegicus. Nature of the test: Concentration inhibiting serotonin uptake in rat brain synaptosomes. It is filed as functional.
Test [3] has as its target T1, Sodium-dependent dopamine transporter (Homo sapiens, UniProt Q01959). The test can be described thus: In vitro binding affinity against Dopamine transporter in LLC-PK1 cell membranes. It is filed as cell-based, Sus scrofa.
Test [4] addresses Sodium-dependent serotonin transporter (Homo sapiens, UniProt P31645). The test can be described thus: In vitro binding affinity against Serotonin transporter (SERT) from LLC-PK1 cell membranes. It is filed as cell-based, Sus scrofa.
The target of test [5] is T1, Sodium-dependent dopamine transporter. Nature of the test: Concentration inhibiting Dopamine transporter.
For test [6], the species on record is Rattus norvegicus. The test can be described thus: Concentration inhibiting 5-HT reuptake in rat brain synaptosomes. It is filed as functional.

T1 sequence (Q01959 whole entry): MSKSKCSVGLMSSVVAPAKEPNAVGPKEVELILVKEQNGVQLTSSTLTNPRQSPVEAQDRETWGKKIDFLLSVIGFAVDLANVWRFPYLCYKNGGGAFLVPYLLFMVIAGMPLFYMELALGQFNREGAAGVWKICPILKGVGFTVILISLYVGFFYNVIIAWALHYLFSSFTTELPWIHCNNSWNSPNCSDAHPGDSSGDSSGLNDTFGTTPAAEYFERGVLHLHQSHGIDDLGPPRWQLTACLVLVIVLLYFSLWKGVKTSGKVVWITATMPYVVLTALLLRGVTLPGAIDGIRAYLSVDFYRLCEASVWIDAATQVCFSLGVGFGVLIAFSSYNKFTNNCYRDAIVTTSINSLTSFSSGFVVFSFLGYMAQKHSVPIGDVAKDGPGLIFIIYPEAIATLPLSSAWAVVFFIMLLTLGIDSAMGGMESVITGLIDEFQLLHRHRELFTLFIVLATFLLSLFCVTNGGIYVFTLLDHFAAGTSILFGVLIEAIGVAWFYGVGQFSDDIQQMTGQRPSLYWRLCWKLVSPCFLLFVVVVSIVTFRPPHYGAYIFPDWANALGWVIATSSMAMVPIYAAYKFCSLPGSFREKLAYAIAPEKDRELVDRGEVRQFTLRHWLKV
Chain of Sodium-dependent serotonin transporter (P31645 whole entry): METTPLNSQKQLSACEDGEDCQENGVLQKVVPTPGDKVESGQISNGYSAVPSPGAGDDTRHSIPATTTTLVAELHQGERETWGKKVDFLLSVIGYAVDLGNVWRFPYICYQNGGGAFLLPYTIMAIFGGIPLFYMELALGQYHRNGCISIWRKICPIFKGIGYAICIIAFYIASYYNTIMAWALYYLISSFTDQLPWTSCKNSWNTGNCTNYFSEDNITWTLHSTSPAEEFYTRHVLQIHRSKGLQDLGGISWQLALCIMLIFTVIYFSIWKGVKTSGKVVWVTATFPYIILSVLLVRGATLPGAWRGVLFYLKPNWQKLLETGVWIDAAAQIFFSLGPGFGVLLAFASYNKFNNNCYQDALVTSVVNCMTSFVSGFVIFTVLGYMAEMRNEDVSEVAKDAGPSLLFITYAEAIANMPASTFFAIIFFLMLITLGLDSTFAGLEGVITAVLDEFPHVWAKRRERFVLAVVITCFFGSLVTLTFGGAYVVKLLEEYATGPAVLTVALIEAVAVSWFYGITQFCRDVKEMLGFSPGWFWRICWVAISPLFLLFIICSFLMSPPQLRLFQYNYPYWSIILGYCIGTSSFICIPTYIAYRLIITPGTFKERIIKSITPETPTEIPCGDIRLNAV

Regarding `CN(C)Cc1ccccc1Sc1ccc(Cl)cc1CO`, the Ki (commonly the equilibrium dissociation constant of an inhibitor or competing ligand from its target) in the test listed under Rattus norvegicus [1] came out at 55 nM; in the test filed under Rattus norvegicus [2] it was 2.1 nM.
With `CN(C)Cc1ccccc1Sc1ccc(I)cc1CO`, the inhibitory constant (Ki) was over 10000 nM in test [3] and 0.097 nM in test [4].
For `CN(C)Cc1ccccc1Sc1ccc(Br)cc1CO`, the Ki in test [3] is over 10000 nM; in test [4], 0.52 nM.
Consider `CSc1ccc([C@H]2CN3CCC[C@H]3c3ccccc32)cc1`, for which the Ki in test [3] was 112 nM; in test [5], 23.5 nM; in the test filed under Rattus norvegicus [6] it was 0.4 nM.
